The values that follow come from patent US20240198287A1, “CARBON DIOXIDE RECOVERING METHOD AND CARBON DIOXIDE RECOVERING DEVICE” (MITSUBISHI GAS CHEMICAL COMPANY, INC., priority 2021, published 2024).

The series can be described thus: Acid dissociation constant (pKa) by acid-base titration. It is filed as physicochemical. Conditions: purified water; titration with 0.1 N perchloric acid-acetic acid solution, 25±2° C. The procedure: In the present description, the acid dissociation constant of the amine compound (a) is a value obtained by the following measurement method based on an acid-base titration method. • (1) Dissolving 0.2 g of the amine compound (a) in 30 mL of purified water. • (2) Calculating the acid dissociation constant (pKa) by titrating the solution obtained in the above (1) with 0.1 N perchloric acid-acetic acid solution using an automatic potentiometric titrator (for example, AT-610 produced by Kyoto Electronics Manufacturing Co., Ltd.).
Still, let a temperature at a time of measurement be 25±2° C.
The acid dissociation constant of the amine compound (a) was determined by the following method. • (1) Dissolving 0.2 g of the amine compound (a) in 30 mL of the purified water. • (2) Calculating the acid dissociation constant (pKa) by titrating the solution obtained in the above (1) with the 0.1 N perchloric acid-acetic acid solution using the automatic potentiometric titrator (AT-610 produced by Kyoto Electronics Manufacturing Co., Ltd.).
Still, let the temperature at the time of measurement be 25±2° C.

By pKa is commonly meant the negative logarithm of the acid dissociation constant. Higher therefore signals a group that holds its proton tightly. The compound `NCC1CCCC(CN)C1` (stereo not shown) [1,3-BAC, 1,3-bis(aminomethyl)cyclohexane] gave a pKa of 10.8.
